Reference: publication PMC10535824, “Tryptophan Substitution in CJ-15,208 (cyclo[Phe-D-Pro-Phe-Trp]) Introduces δ-Opioid Receptor Antagonism, Preventing Antinociceptive Tolerance and Stress-Induced Reinstatement of Extinguished Cocaine-Conditioned Place Preference” (Pharmaceuticals, 2023)
Like-named read-outs stand apart in the source and are kept apart here. Square brackets hold non-standard residues; d marks the D form. Peptide text beside a SMILES is read from it. 1Nal = N[C@@H](Cc1cccc2ccccc12)C(=O)O; 2Nal = N[C@@H](Cc1ccc2ccccc2c1)C(=O)O; d1Nal = N[C@H](Cc1cccc2ccccc12)C(=O)O; d2Nal = N[C@H](Cc1ccc2ccccc2c1)C(=O)O; Bta = N[C@@H](Cc1csc2ccccc12)C(=O)O; dBta = N[C@H](Cc1csc2ccccc12)C(=O)O

Key:
rat KOR [1] = target: T1, rat KOR (Rattus norvegicus, UniProt P34975); test: radioligand equilibrium competition binding, KOR; details: CHO cell membranes, [3H]diprenorphine; mean ± SEM, at least three experiments
T1 construct: expressed in transfected cells
Description: (§1) Opioid receptor affinities were determined by equilibrium radioligand binding assays as previously described with membranes from Chinese hamster ovary (CHO) cells stably expressing rat KOR, rat MOR, or mouse DOR using the radioligands [^3H]diprenorphine, [^3H][D-Ala^2,N-MePhe^4,glyol]enkephalin (DAMGO), and [^3H][D-Pen^2,D-Pen^5]enkephalin (DPDPE), respectively. Following determination of IC50 values by nonlinear regression using Prism software (GraphPad Software Co., La Jolla, CA, USA), Ki values were calculated using the Cheng–Prusoff equation [57]. The results are presented as the mean ± SEM from at least three separate experiments, each performed in triplicate.

rat MOR [2] = target: T2, rat MOR (Rattus norvegicus, UniProt P33535); test: radioligand equilibrium competition binding, MOR; details: CHO cell membranes, [3H]DAMGO; mean ± SEM, at least three experiments
T2 construct: expressed in transfected cells
Description: as §1

mouse DOR [3] = target: T3, mouse DOR (Mus musculus, UniProt P32300); test: radioligand equilibrium competition binding, DOR; details: CHO cell membranes, [3H]DPDPE; mean ± SEM, at least three experiments (D-Nal(1′)^4 n = 2)
T3 construct: expressed in transfected cells
Description: as §1

[4] = metabolism by mouse liver microsomes; type: in vitro ADME; details: read-out: t1/2 in mouse liver microsomes
Description: The metabolism of the macrocyclic tetrapeptides by mouse liver microsomes was evaluated as previously described, with the amount of peptide remaining determined by LC-MS/MS [55] using [D-MeAla^2]CJ-15,208 [53] as the internal standard.

C57BL/6J mice [5] = test: 55 °C warm-water tail-withdrawal assay, antinociception after i.c.v. administration; type: in vivo, mouse; parameters: key: ~: Maximum antinociception not achieved, precluding calculation of an ED50 value
Description: For intracerebroventricular administration, the macrocyclic peptides were dissolved in dimethyl sulfoxide (DMSO), followed by addition of sterile saline (0.9%) so that the final vehicle was 50% DMSO and 50% saline, and the i.c.v. injections were performed as described previously. This concentration of DMSO was not observed to have antinociceptive or behavioral effects in previous use. All solutions for animal administration were prepared fresh daily.
The 55 °C warm-water tail-withdrawal assay was performed in mice as previously described, with the latency of the mouse to withdraw its tail from the water taken as the endpoint (a cut-off time of 15 s was used in this assay). Antinociception was calculated according to the following formula: % antinociception = 100 × (test latency − control latency)/(15 − control latency). Tail-withdrawal data points are the means of 8–16 mice, unless otherwise indicated, with SEM shown by error bars.
All dose–response lines were analyzed by regression, and ED50 (effective dose producing 50% antinociception) values and 95% C.I. were determined using individual data points from graded dose–-response curves with Prism 8.0 software (GraphPad, La Jolla, CA, USA). Percent antinociception was used to determine within-group effects and to allow comparison to baseline latency in tail-withdrawal experiments. The statistical significance of differences between ED50 values was determined by evaluation of the ED50 value shift via nonlinear regression modeling with Prism software. Significant differences in behavioral data were analyzed by ANOVA (one-way or two-way with repeated measures (RM), as appropriate). Significant results were further analyzed with Sidak’s, Tukey’s, or Dunnett’s multiple comparison post hoc tests, as appropriate. Data for conditioned place preference experiments were analyzed by one-way or two-way RM ANOVA, with analyses examining the main effect of conditioned place preference phase (e.g., pre- or post-conditioning) and the interaction of drug pretreatment and/or exposure. All data are presented as mean ± SEM, with significance set at p < 0.05.

C57BL/6J mice [6] = test: acute antinociceptive tolerance (dosing at 0 and 8 h); details: i.c.v.; for Naïve ED50 (95% C.I.): naïve mice
Description: The degree of tolerance was calculated from the shift in ED50 value from the singly to repeatedly treated condition.

C57BL/6J mice [7] = test: respiration rate, CLAMS/Oxymax; type: in vivo, mouse; details: i.c.v.; [Nal(2′)^4]CJ-15,208 100 nmol, morphine 30 nmol; 80 min
Description: (§2) Respiration rates (in breaths per minute) and animal locomotive activity (as ambulation) were assessed using the Oxymax/CLAMS system (Columbus Instruments, Columbus, OH, USA) as described previously. Mice were habituated to their individual sealed housing chambers for 60 min before testing. […] Pressure monitoring within the sealed chambers measured frequency of respiration. Infrared beams located in the floor measured locomotion as number of beam breaks. Respiration and locomotive data were averaged over 20 min periods for 80 min post-injection of the test compound. Data are presented as % vehicle response ± SEM; ambulation, or breaths per minute.

C57BL/6J mice [8] = test: spontaneous locomotor activity (ambulation), CLAMS/Oxymax; type: in vivo, mouse; details: i.c.v.; [Nal(2′)^4]CJ-15,208 100 nmol, morphine 30 nmol; 80 min
Description: as §2

C57BL/6J mice [9] = details: mouse, in vivo
MOR, KOR, DOR = test: opioid receptor involvement in antinociception (KO mice / selective antagonist pretreatment), tail-withdrawal assay; type: in vivo, mouse; details: dose producing maximum antinociception, i.c.v., KOR KO mice or β-FNA, nor-BNI, naltrindole pretreatment
Description: Except for the Bta^4 analog, contributions of the MOR and KOR were assessed in knockout (KO) mice for those receptors; DOR contribution to the antinociceptive activity of the analogs was assessed by pretreating mice with naltrindole (20 mg/kg, i.p., −20 min) prior to administration of analog (Figure 3).
Assessment of DOR involvement in the agonist activity of each macrocyclic peptide was performed by pretreating additional wild-type mice with a single dose of naltrindole (20 mg/kg, i.p.) 20 min in advance of administration of the macrocyclic peptide.

KOR = target: T4, KOR (Mus musculus, UniProt P33534); test: antagonism of U50,488 antinociception, tail-withdrawal assay; type: in vivo; details: peptide i.c.v. (3-300 nmol, Figure 4) 140 min before U50,488 10 mg/kg i.p.
T4 construct: endogenous in cells; host or cells: living adult male C57BL/6J mice
Description: ; at this time, the antinociceptive activity of the analogs had dissipated. Antinociception produced by the established opioid agonists was then measured 40 min after their administration. The dose response of KOR or DOR antagonism produced by selected analogs was further determined by evaluating antinociception after administration of one of three additional i.c.v. doses of the analog.

rat KOR [10] = target: T1, rat KOR; details: parent peptides; mean ± SEM; cited from earlier work
rat MOR [11] = target: T2, rat MOR; details: parent peptides; mean ± SEM; cited from earlier work
mouse DOR [12] = target: T3, mouse DOR; details: parent peptides; mean ± SEM; cited from earlier work
[13] = antinociception at peak response
[14] = acute tolerance, dosing at 0 and 8 h

Compound | Ki (rat KOR [1]) [nM] | Ki (rat MOR [2]) [nM] | Ki (mouse DOR [3]) [nM] | ED50 (and 95% C.I.) i.c.v. (C57BL/6J mice [5]; [13]) | further results
O=C1N[C@@H](Cc2ccccc2)C(=O)N2CCC[C@@H]2C(=O)N[C@@H](Cc2ccccc2)C(=O)N[C@H]1Cc1csc2ccccc12 [Bta^4, [Bta^4]CJ-15,208] (cyclo(F[dP]F[Bta])) | 51.9 ± 4.8 | 90.3 ± 38.5 | 1600 ± 360 | 13.2 (9.62–18.2) nmol | half-life [4]: 28 min
O=C1N[C@H](Cc2csc3ccccc23)C(=O)N[C@@H](Cc2ccccc2)C(=O)N2CCC[C@@H]2C(=O)N[C@H]1Cc1ccccc1 [D-Bta^4, [D-Bta^4]CJ-15,208] (cyclo(F[dP]F[dBta])) | 4.29 ± 0.38 | 84.2 ± 11.8 | > 10000 | – | –
O=C1N[C@H](Cc2cccc3ccccc23)C(=O)N[C@@H](Cc2ccccc2)C(=O)N2CCC[C@@H]2C(=O)N[C@H]1Cc1ccccc1 [D-Nal(1′)^4, [D-Nal(1′)^4]CJ-15,208] (cyclo(F[dP]F[d1Nal])) | 21.4 ± 0.7 | 101 ± 25 | > 10000 | – | –
O=C1N[C@H](Cc2ccc3ccccc3c2)C(=O)N[C@@H](Cc2ccccc2)C(=O)N2CCC[C@@H]2C(=O)N[C@H]1Cc1ccccc1 [D-Nal(2′)^4, [D-Nal(2′)^4]CJ-15,208] (cyclo(F[dP]F[d2Nal])) | 12.3 ± 1.8 | 63.8 ± 5 | > 10000 | 31.2 (22.5–41.9) nmol | –
CN1CC[C@]23c4c5ccc(O)c4O[C@H]2[C@@H](O)C=C[C@H]3[C@H]1C5 [Morphine, reference compound] | – | – | – | 2.35 (1.13–5.03) nmol | Naïve ED50 (95% C.I.) (C57BL/6J mice [6]): 2.35 (1.13–5.03) nmol; effect on respiration rate vs. vehicle (C57BL/6J mice [7]): produced significant, time-dependent respiratory depression; effect on ambulation vs. vehicle (C57BL/6J mice [8]): significantly increased ambulation; conditioned place preference or aversion (C57BL/6J mice [9]; C57BL/6J): significant (p = 0.03) place preference
O=C1N[C@@H](Cc2ccccc2)C(=O)N2CCC[C@@H]2C(=O)N[C@@H](Cc2ccccc2)C(=O)N[C@H]1Cc1cccc2ccccc12 [Nal(1′)^4, [Nal(1′)^4]CJ-15,208] (cyclo(F[dP]F[1Nal])) | 103 ± 6 | 110 ± 16 | 1920 ± 120 | 0.24 (0.19–0.31) nmol | –
O=C1N[C@@H](Cc2ccccc2)C(=O)N2CCC[C@@H]2C(=O)N[C@@H](Cc2ccccc2)C(=O)N[C@H]1Cc1ccc2ccccc2c1 [Nal(2′)^4, [Nal(2′)^4]CJ-15,208] (cyclo(F[dP]F[2Nal])) | 358 ± 137 | 583 ± 59 | 3300 ± 360 | 19.5 (15.8–24.0) nmol | half-life [4]: > 60 min; Fold-Shift, Naïve ED50 vs. Second ED50 (C57BL/6J mice [6]; [14]): 0.37; leftward shift in the dose–response curve of the second dose (C57BL/6J mice [6]; [14]): 2.7 fold; Naïve ED50 (95% C.I.) (C57BL/6J mice [6]): 19.5 (15.8–24.0) nmol; effect on respiration rate vs. vehicle (C57BL/6J mice [7]): did not significantly impair breathing; effect on ambulation vs. vehicle (C57BL/6J mice [8]): not significant; conditioned place preference or aversion (C57BL/6J mice [9]): no significant preference or aversion
cyclo(F[dP]FW) [CJ-15,208] | – | – | – | 1.74 (0.62–4.82) nmol | Receptors Involved in antinociception (MOR, KOR, DOR): KOR, MOR; antagonism of U50,488 antinociception (KOR antagonism) (KOR): displayed significant KOR antagonism; Ki (rat KOR [10]): 27.4 ± 4.6 nM; Ki (rat MOR [11]): 451 ± 114 nM; Ki (mouse DOR [12]): 1720 ± 350 nM
cyclo(F[dP]F[dW]) [[D-Trp]CJ-15,208] | – | – | – | – | ED50 (and 95% C.I.) i.c.v. (C57BL/6J mice [5]; symbol where no ED50 could be calculated): ~; antagonism of U50,488 antinociception (KOR antagonism) (KOR): significantly antagonized U50,488-induced antinociception; Ki (rat KOR [10]): 21.8 ± 4.8 nM; Ki (rat MOR [11]): 259 ± 29 nM; Ki (mouse DOR [12]): 4190 ± 860 nM
